From PubChem BioAssay AID256 (DTP/NCI, 2004) come the findings set out here.

The assay deals with CD2F1 mice, L1210 leukemia ip, survival T/C. The experiment in a line: NCI In Vivo Anticancer Drug Screen. Data for tumor model L1210 Leukemia (intraperitoneal) in CD2F1 (CDF1) mice. Conditions: higher = longer survival. A digest of the protocol:
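Transplantable tumor in mice; compound-treated vs vehicle-treated groups. Read-out = treated/control ratio of the measured endpoint.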

[1] abbreviates: endpoint: mean survival time, dose: 50.0 mg/kg/injection, schedule: Q01DX009 (ip), vehicle: saline with Tween-80.
The mark [2] stands for this setting: endpoint: mean survival time, dose: 100.0 mg/kg/injection, schedule: Q01DX009 (ip), vehicle: saline with Tween-80.
The mark [3] stands for this setting: endpoint: mean survival time, dose: 25.0 mg/kg/injection, schedule: Q01DX009 (ip), vehicle: saline with Tween-80.
The mark [4] stands for this setting: endpoint: mean survival time, dose: 100.0 mg/kg/injection, schedule: Q04DX003 (ip), vehicle: saline with Tween-80.
Setting [5] is: endpoint: mean survival time, dose: 200.0 mg/kg/injection, schedule: Q04DX003 (ip), vehicle: saline with Tween-80.
Where [6] appears, read: endpoint: mean survival time, dose: 400.0 mg/kg/injection, schedule: Q04DX003 (ip), vehicle: saline with Tween-80.
Setting [7] is: endpoint: mean survival time, dose: 50.0 mg/kg/injection, schedule: Q04DX003 (ip), vehicle: saline.
Setting [8] is: endpoint: mean survival time, dose: 100.0 mg/kg/injection, schedule: Q04DX003 (ip), vehicle: saline.
Where [9] appears, read: endpoint: mean survival time, dose: 200.0 mg/kg/injection, schedule: Q04DX003 (ip), vehicle: saline.
[10] abbreviates: endpoint: mean survival time, dose: 100.0 mg/kg/injection, schedule: Q01DX001 (ip), vehicle: saline with Tween-80.
Where [11] appears, read: endpoint: mean survival time, dose: 200.0 mg/kg/injection, schedule: Q01DX001 (ip), vehicle: saline with Tween-80.
The mark [12] stands for this setting: endpoint: mean survival time, dose: 400.0 mg/kg/injection, schedule: Q01DX001 (ip), vehicle: saline with Tween-80.
Setting [13] is: endpoint: mean survival time, dose: 100.0 mg/kg/injection, schedule: Q01DX001 (ip), vehicle: saline.
Setting [14] is: endpoint: mean survival time, dose: 200.0 mg/kg/injection, schedule: Q01DX001 (ip), vehicle: saline.
[15] abbreviates: endpoint: mean survival time, dose: 400.0 mg/kg/injection, schedule: Q01DX001 (ip), vehicle: saline.

Several values for one entry are separate records, joined by “and”; a condition that tells them apart may be missing. Identical values can stand only once. Inconclusive results and toxic doses are left out.

In the case of `O=C(Nc1ccc(C2=NCCN2)cc1)c1ccc(C(=O)Nc2ccc(C3=NCCN3)cc2)c([N+](=O)[O-])c1`, the T/C (endpoint: mean survival time, dose: 5.0 mg/kg/injection, schedule: Q01DX007 (ip), vehicle: saline) is 124 % of control; the T/C (endpoint: mean survival time, dose: 5.0 mg/kg/injection, schedule: Q03DX003 (ip), vehicle: saline) was 107 % of control; the T/C (endpoint: mean survival time, dose: 5.0 mg/kg/injection, schedule: Q04DX003 (ip), vehicle: saline) is 112 % of control; the T/C (endpoint: mean survival time, dose: 8.0 mg/kg/injection, schedule: Q01DX009 (ip), vehicle: saline) was 158 % of control; the T/C (endpoint: mean survival time, dose: 10.0 mg/kg/injection, schedule: Q01DX007 (ip), vehicle: saline) is 155 % of control; the T/C (endpoint: mean survival time, dose: 10.0 mg/kg/injection, schedule: Q01DX009 (ip), vehicle: saline) was 163 % of control. Further, the T/C was 113 % of control (endpoint: mean survival time, dose: 10.0 mg/kg/injection, schedule: Q03DX003 (ip), vehicle: saline); 112 % of control (endpoint: mean survival time, dose: 10.0 mg/kg/injection, schedule: Q04DX003 (ip), vehicle: saline); 271 % of control (endpoint: mean survival time, dose: 16.0 mg/kg/injection, schedule: Q01DX009 (ip), vehicle: saline); 181 % of control (endpoint: mean survival time, dose: 20.0 mg/kg/injection, schedule: Q01DX007 (ip), vehicle: saline); 225 % of control (endpoint: mean survival time, dose: 20.0 mg/kg/injection, schedule: Q01DX009 (ip), vehicle: saline); 115 % of control (endpoint: mean survival time, dose: 20.0 mg/kg/injection, schedule: Q04DX003 (ip), vehicle: saline).

For `Cc1cn(C2CC(O)C(Cn3ccc4ccccc43)O2)c(=O)[nH]c1=O` (centres undefined), the T/C was 94 % of control (endpoint: mean survival time, dose: 12.5 mg/kg/injection, schedule: Q01DX005 (ip), vehicle: Klucel (hydroxypropylcellulose) (HPC)) and 90 % of control (endpoint: mean survival time, dose: 25.0 mg/kg/injection, schedule: Q01DX005 (ip), vehicle: Klucel (hydroxypropylcellulose) (HPC)).

Consider `O=C(O)c1ccc(C(=O)O)c(C(=O)O)c1.[NH-]Cc1ccccc1C[NH-].[Pt+2]`, for which the T/C is, setting by setting: (endpoint: mean survival time, dose: 5.0 mg/kg/injection, schedule: Q04DX003 (ip), vehicle: sodium bicarbonate) 110 % of control; (endpoint: mean survival time, dose: 10.0 mg/kg/injection, schedule: Q04DX003 (ip), vehicle: sodium bicarbonate) 110 % of control; (endpoint: mean survival time, dose: 20.0 mg/kg/injection, schedule: Q04DX003 (ip), vehicle: sodium bicarbonate) 108 % of control; (endpoint: mean survival time, dose: 40.0 mg/kg/injection, schedule: Q04DX003 (ip), vehicle: sodium bicarbonate) 108 % of control; (endpoint: mean survival time, dose: 80.0 mg/kg/injection, schedule: Q04DX003 (ip), vehicle: sodium bicarbonate) 96 % of control.

Regarding `O=C(O)C1CCC=CCC1`, the T/C reads like this: (endpoint: mean survival time, dose: 100.0 mg/kg/injection, schedule: Q04DX003 (ip), vehicle: other) 103 % of control; (endpoint: mean survival time, dose: 200.0 mg/kg/injection, schedule: Q04DX003 (ip), vehicle: other) 94 % of control; (endpoint: mean survival time, dose: 400.0 mg/kg/injection, schedule: Q04DX003 (ip), vehicle: other) 89 % of control.

As for `O=C1OCCC1=P(c1ccccc1)(c1ccccc1)c1ccccc1`, the T/C under setting [1] is 100 % of control; the T/C under setting [2] is 96 % of control; the T/C (endpoint: mean survival time, dose: 200.0 mg/kg/injection, schedule: Q01DX009 (ip), vehicle: saline with Tween-80) is 96 % of control.

For `CC[CH2][Sn]([Cl])([Cl])[CH2]CC.Oc1ccccc1C=NCCN=Cc1ccccc1O`, the T/C by setting is: (endpoint: mean survival time, dose: 0.62 mg/kg/injection, schedule: Q01DX009 (ip), vehicle: gum acacia) 100 % of control; (endpoint: mean survival time, dose: 1.25 mg/kg/injection, schedule: Q01DX009 (ip), vehicle: gum acacia) 100 % of control; (endpoint: mean survival time, dose: 2.5 mg/kg/injection, schedule: Q01DX009 (ip), vehicle: gum acacia) 97 % of control and 103 % of control; (endpoint: mean survival time, dose: 3.3 mg/kg/injection, schedule: Q01DX009 (ip), vehicle: saline with Tween-80) 103 % of control; (endpoint: mean survival time, dose: 5.0 mg/kg/injection, schedule: Q01DX001 (ip), vehicle: saline with Tween-80) 94 % of control; (endpoint: mean survival time, dose: 5.0 mg/kg/injection, schedule: Q01DX009 (ip), vehicle: gum acacia) 104 % of control and 108 % of control. Besides, the T/C by setting is: (endpoint: mean survival time, dose: 5.0 mg/kg/injection, schedule: Q01DX009 (ip), vehicle: saline with Tween-80) 92 % of control; (endpoint: mean survival time, dose: 7.5 mg/kg/injection, schedule: Q01DX009 (ip), vehicle: saline with Tween-80) 95 % of control; (endpoint: mean survival time, dose: 10.0 mg/kg/injection, schedule: Q01DX001 (ip), vehicle: saline with Tween-80) 95 % of control; (endpoint: mean survival time, dose: 20.0 mg/kg/injection, schedule: Q01DX001 (ip), vehicle: saline with Tween-80) 96 % of control.

In the case of `Cc1c(N)ccc(O)c1C`, the T/C by setting is: (endpoint: mean survival time, dose: 12.5 mg/kg/injection, schedule: Q01DX009 (ip), vehicle: saline with Tween-80) 98 % of control; under setting [3], 97 % of control; under setting [1], 92 % of control.

In the case of `CCCCN(CCCC)CC(O)c1cc(-c2ccc(Cl)cc2)nc2c(OC)ccc(OC)c12` (centres undefined), the T/C was 98 % of control under setting [4], 102 % of control under setting [5] and 98 % of control under setting [6].

Turning to `CC(C)NC(=O)CCn1c(=O)c2ccccc2c(=O)n1C`, the T/C was 98 % of control (endpoint: mean survival time, dose: 25.0 mg/kg/injection, schedule: Q04DX003 (ip), vehicle: saline); 98 % of control under setting [7]; 96 % of control under setting [8]; 106 % of control under setting [9]; 101 % of control (endpoint: mean survival time, dose: 400.0 mg/kg/injection, schedule: Q04DX003 (ip), vehicle: saline).

On to `CCOC(=O)CNC(=O)Oc1ccc(C=O)cc1OC`, for which the T/C by setting is: under setting [3], 100 % of control; under setting [1], 101 % of control; under setting [2], 90 % of control.

Take `Cc1ccc(CC(F)F)cc1`: the T/C by setting is: under setting [10], 101 % of control; (endpoint: mean survival time, dose: 100.0 mg/kg/injection, schedule: Q04DX003 (ip), vehicle: saline sonified) 98 % of control; under setting [11], 101 % of control; (endpoint: mean survival time, dose: 200.0 mg/kg/injection, schedule: Q04DX003 (ip), vehicle: saline sonified) 96 % of control; under setting [12], 103 % of control; (endpoint: mean survival time, dose: 400.0 mg/kg/injection, schedule: Q04DX003 (ip), vehicle: saline sonified) 96 % of control.

As for `CN=C(N)N/N=C(\c1ccccc1)c1ccc(Br)cc1`, the T/C is 100 % of control (endpoint: median survival time, dose: 3.12 mg/kg/injection, schedule: Q01DX009 (ip), vehicle: saline); 106 % of control (endpoint: median survival time, dose: 6.25 mg/kg/injection, schedule: Q01DX009 (ip), vehicle: saline); 107 % of control (endpoint: median survival time, dose: 12.5 mg/kg/injection, schedule: Q01DX009 (ip), vehicle: saline); 121 % of control (endpoint: median survival time, dose: 25.0 mg/kg/injection, schedule: Q01DX009 (ip), vehicle: saline).

`Cc1cccc(-n2c(N)cc(=O)[nH]c2=S)n1`: under setting [4], the T/C was 96 % of control.

As for `NC(=S)N=Nc1c(O)cc(O)c2[nH]c(=O)ccc12`, the T/C under setting [13] is 109 % of control.

In the case of `CCOC(=O)CC1NCCS1` (centres undefined), the T/C runs as follows: under setting [13], 97 % of control; under setting [14], 96 % of control; under setting [15], 94 % of control.

Turning to `CCOC(=O)Nc1cc2ncc(C(=O)N(C)c3ccccc3)nc2c(N)n1`, the T/C is 98 % of control under setting [10], 88 % of control under setting [11] and 98 % of control under setting [12].

For `CC(=O)Oc1ccccc1N(C(C)=O)S(=O)(=O)c1ccc(C)cc1`, the T/C was 98 % of control under setting [7]; 106 % of control under setting [13]; 101 % of control under setting [8]; 108 % of control under setting [14]; 101 % of control under setting [9]; 100 % of control under setting [15].

For the compound `OC(CC1(O)C(F)(F)C(F)(F)C1(F)F)c1ccccc1` (centres undefined), the T/C was 96 % of control under setting [4], 92 % of control under setting [5] and 90 % of control under setting [6].

For `CCOC(=O)CCC(NC(=O)c1ccc(CN(C)Cc2cnc3nc(N)nc(N)c3n2)cc1)C(=O)OCC` (centres undefined), the T/C (endpoint: mean survival time, dose: 1.0 mg/kg/injection, schedule: Q01DX009 (ip), vehicle: Klucel (hydroxypropylcellulose) (HPC)) was 100 % of control; the T/C (endpoint: mean survival time, dose: 10.0 mg/kg/injection, schedule: Q01DX009 (ip), vehicle: Klucel (hydroxypropylcellulose) (HPC)) was 108 % of control; the T/C (endpoint: mean survival time, dose: 25.0 mg/kg/injection, schedule: Q01DX009 (ip), vehicle: Klucel (hydroxypropylcellulose) (HPC)) is 115 % of control.
